Assay results from PubChem BioAssay (NCI).
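A five-concentration, 48-hour dose response in 96-well plates underlies each endpoint, interpolated linearly between surrounding concentrations. TGI is the concentration that stops growth completely.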

How the values were obtained:
Assay in all cases: growth of human tumour cells (NCI), 48 h
[1] = test system: 786-0 renal
[2] = test system: A549 NSCLC
[3] = test system: ACHN renal
[4] = test system: BT-549 breast
[5] = test system: CCRF-CEM leukemia
[6] = test system: COLO 205 colon
[7] = test system: DU-145 prostate
[8] = test system: EKVX NSCLC
[9] = test system: HCC-2998 colon
[10] = test system: HCT-116 colon
[11] = test system: HCT-15 colon
[12] = test system: HL-60(TB) leukemia
[13] = test system: HOP-62 NSCLC
[14] = test system: HOP-92 NSCLC
[15] = test system: HS 578T breast
[16] = test system: HT29 colon
[17] = test system: IGROV1 ovarian
[18] = test system: KM12 colon
[19] = test system: LOX IMVI melanoma
[20] = test system: M14 melanoma
[21] = test system: MALME-3M melanoma
[22] = test system: MCF7 breast
[23] = test system: MDA-MB-231 breast
[24] = test system: MDA-MB-435
[25] = test system: MDA-N
[26] = test system: MOLT-4 leukemia
[27] = test system: NCI-H226 lung
[28] = test system: NCI-H23 lung
[29] = test system: NCI-H460 lung
[30] = test system: NCI-H522 lung
[31] = test system: NCI/ADR-RES ovarian
[32] = test system: OVCAR-3 ovarian
[33] = test system: OVCAR-4 ovarian
[34] = test system: OVCAR-5 ovarian
[35] = test system: OVCAR-8 ovarian
[36] = test system: PC-3 prostate
[37] = test system: RPMI-8226 leukemia
[38] = test system: SF-268 CNS
[39] = test system: SF-295 CNS
[40] = test system: SF-539 CNS
[41] = test system: SK-MEL-2 melanoma
[42] = test system: SK-MEL-28 melanoma
[43] = test system: SK-MEL-5 melanoma
[44] = test system: SK-OV-3 ovarian
[45] = test system: SN12C renal
[46] = test system: SNB-19 CNS
[47] = test system: SNB-75 CNS
[48] = test system: SR leukemia
[49] = test system: SW-620 colon
[50] = test system: T-47D breast
[51] = test system: TK-10 renal
[52] = test system: U251 CNS
[53] = test system: UACC-257 melanoma
[54] = test system: UACC-62 melanoma
[55] = test system: UO-31 renal
[56] = test system: A498 renal
[57] = test system: CAKI-1 renal
[58] = test system: K-562 leukemia
[59] = test system: RXF 393 renal

Measured: TGI

COc1ccc(C(=O)N2CCN(c3ccc4[nH]c(=O)oc4c3)CC2)cc1
not listed: [56] | [57] | [58] | [59]
> 100 µM: all other assays above

C[C@H](CCC1=NCCN1)[C@H]1CC[C@H]2[C@@H]3CC[C@@H]4C[C@H](O)CC[C@]4(C)[C@H]3CC[C@]12C
> 41 µM: [23]
28.2 µM: [27]
20.9 µM: [13]
8.79 µM: [26]
> 48.9 µM: [49]
25.4 µM: [17]
10.4 µM: [39]
> 51.8 µM: [50]
4.76 µM: [19]
4.86 µM: [42]
35 µM: [28]
34.7 µM: [34]
> 36.9 µM: [10]
> 45.2 µM: [52]
37.2 µM: [35]
45.3 µM: [44]
13.4 µM: [37]
20.2 µM: [57]
14.3 µM: [30]
55.2 µM: [59]
39.5 µM: [31]
14.2 µM: [5]
3.65 µM: [16]
> 47.4 µM: [18]
36.3 µM: [46]
35.8 µM: [7]
34.3 µM: [38]
29.5 µM: [25]
30.1 µM: [8]
38.4 µM: [32]
22 µM: [24] | [47]
6.6 µM: [53]
> 21.8 µM: [58]
28.4 µM: [36]
29.6 µM: [33]
7.76 µM: [21]
21.3 µM: [41]
19.5 µM: [14]
> 33.9 µM: [29]
> 58.1 µM: [40]
> 20 µM: [48]
> 57.4 µM: [22]
37.3 µM: [45]
> 22.6 µM: [20]
4.26 µM: [54]
24.2 µM: [3]
48.2 µM: [15]
23.2 µM: [51]
24.6 µM: [9]
22.4 µM: [2]
34.5 µM: [56]
3.18 µM: [6]
3.45 µM: [43]
31.4 µM: [55]
> 50.2 µM: [11]
33.4 µM: [4]

CC(C)(C)C(=O)Nc1cccc(-c2ccc[nH]2)n1
25.5 µM: [37]
87.5 µM: [15]
not listed: [12]
> 100 µM: all other assays above

CC1(C)OC(=O)CC12CCN(Cc1ccccc1)CC2
not listed: [9] | [18] | [20] | [29] | [49]
> 100 µM: all other assays above
